Common to all, as to type: biochemical
Test [1] concerns the target human GST-PKR (Homo sapiens (Human), UniProt P19525). Kind of test: PKR KinaseGlo Assay. Particulars: recombinant human GST-PKR, 6.6 uM ATP. The protocol:
Commercially available recombinant human GST-PKR (SignalChem, Canada; 1.5 uM-2 uM stock) is diluted to 500 nM in assay buffer (20 mM Tris-HCl, pH 7.2, 10 mM KCl, 10 mM MgCl2, 10% glycerol). Preactivated PKR is dispensed to 384/96-well black plates at 3.125/12.5 uls/well using the liquid handler Janus. Appropriate dilutions of inhibitors are added to 384/96-well plate followed by 6.6 uM ATP (final) and incubated for 10 minutes at room temperature. The remaining ATP/well is determined by adding 6.25/25 uls/well Kinase-Glo assay mix (Promega) and luminescence is measured on EnVision luminescence plate reader (integration time, 0.2 sec; Perkin-Elmer, Massachusetts, USA). The % inhibition for the compounds is calculated using ATP only (100% inhibition) and PKR+ATP (0% inhibition). IC50 values are determined by plotting % activity versus inhibitor concentration. Curves are fitted using Activity base XLfit (IDBS, UK) using the formula—
4 Parameter Logistic Model
fit=(A+((B−A)/(1+(10^((C−x)*D))))) inv=(C−(log(((B−A)/(y−A))−1)/D)) res=(y−fit)

The target of test [2] is VEGFR2 (KDR) (Homo sapiens (Human), UniProt P35968). Kind of test: VEGFR2 Kinase Assay. Particulars: purified cytoplasmic domain KDR protein, 2.7 μM ATP. The protocol:
Biochemical KDR kinase assays were performed in 96 well microtiter plates that were coated overnight with 75 μg/well of poly-Glu-Tyr (4:1) in 10 mM Phosphate Buffered Saline (PBS), pH 7.4. The coated plates were washed with 2 mls per well PBS+0.05% Tween-20 (PBS-T), blocked by incubation with PBS containing 1% BSA, then washed with 2 mls per well PBS-T prior to starting the reaction. Reactions were carried out in 100 μL reaction volumes containing 2.7 μM ATP in kinase buffer (50 mM Hepes buffer pH 7.4, 20 mM MgCl2, 0.1 mM MnCl2 and 0.2 mM Na3VO4). Test compounds were reconstituted in 100% DMSO and added to the reaction to give a final DMSO concentration of 5%. Reactions were initiated by the addition 20 ul per well of kinase buffer containing 200-300 ng purified cytoplasmic domain KDR protein (BPS Bioscience, San Diego, Calif.). Following a 15 minute incubation at 30° C., the reactions were washed 2 mls per well PBS-T. 100 μl of a monoclonal anti-phosphotyrosine antibody-peroxidase conjugate diluted 1:10,000 in PBS-T was added to the wells for 30 minutes. Following a 2 mls per well wash with PBS-Tween-20, 100 μl of 0-Phenylenediamine Dihydrochloride in phosphate-citrate buffer, containing urea hydrogen peroxide, was added to the wells for 7-10 minutes as a colorimetric substrate for the peroxidase. The reaction was terminated by the addition of 100 μl of 2.5N H2SO4 to each well and read using a microplate ELISA reader set at 492 nm. IC50 values for compound inhibition were calculated directly from graphs of optical density (arbitrary units) versus compound concentration following subtraction of blank values.

Test [3] has as its target PDGFRβ (Homo sapiens (Human), UniProt P09619). The experiment in a line: PDGFRβ Kinase Assay. The following applies: purified cytoplasmic domain PDGFR-b protein, 36 μM ATP. The method, then: Biochemical PDGFRβ kinase assays were performed in 96 well microtiter plates that were coated overnight with 75 μg of poly-Glu-Tyr (4:1) in 10 mM Phosphate Buffered Saline (PBS), pH 7.4. The coated plates were washed with 2 mls per well PBS+0.05% Tween-20 (PBS-T), blocked by incubation with PBS containing 1% BSA, then washed with 2 mls per well PBS-T prior to starting the reaction. Reactions were carried out in 100 μL reaction volumes containing 36 μM ATP in kinase buffer (50 mM Hepes buffer pH 7.4, 20 mM MgCl2, 0.1 mM MnCl2 and 0.2 mM Na3VO4). Test compounds were reconstituted in 100% DMSO and added to the reaction to give a final DMSO concentration of 5%. Reactions were initiated by the addition 20 ul per well of kinase buffer containing 200-300 ng purified cytoplasmic domain PDGFR-b protein (Millipore). Following a 60 minute incubation at 30° C., the reactions were washed 2 mls per well PBS-T. 100 μl of a monoclonal anti-phosphotyrosine antibody-peroxidase conjugate diluted 1:10,000 in PBS-T was added to the wells for 30 minutes. […] The reaction was terminated by the addition of 100 μl of 2.5N H2SO4 to each well and read using a microplate ELISA reader set at 492 nm. IC50 values for compound inhibition were calculated directly from graphs of optical density (arbitrary units) versus compound concentration following subtraction of blank values.

Each structure is given as a SMILES string.

human GST-PKR, sequence (P19525 whole entry): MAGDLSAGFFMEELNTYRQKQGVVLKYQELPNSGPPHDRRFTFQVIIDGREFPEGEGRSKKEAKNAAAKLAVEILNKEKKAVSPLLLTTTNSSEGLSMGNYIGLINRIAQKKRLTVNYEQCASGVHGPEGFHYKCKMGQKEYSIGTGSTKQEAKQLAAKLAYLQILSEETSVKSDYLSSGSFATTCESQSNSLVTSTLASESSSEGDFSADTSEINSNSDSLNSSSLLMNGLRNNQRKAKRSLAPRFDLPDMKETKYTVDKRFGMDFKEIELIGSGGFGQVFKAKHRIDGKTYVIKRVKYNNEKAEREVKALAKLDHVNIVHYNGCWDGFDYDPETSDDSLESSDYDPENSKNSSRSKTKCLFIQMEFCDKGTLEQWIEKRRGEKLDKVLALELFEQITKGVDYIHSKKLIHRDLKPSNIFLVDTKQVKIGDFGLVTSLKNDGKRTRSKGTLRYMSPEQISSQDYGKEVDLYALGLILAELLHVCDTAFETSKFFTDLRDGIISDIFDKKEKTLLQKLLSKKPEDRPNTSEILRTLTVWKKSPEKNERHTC
VEGFR2 (KDR), sequence (P35968 786-1356): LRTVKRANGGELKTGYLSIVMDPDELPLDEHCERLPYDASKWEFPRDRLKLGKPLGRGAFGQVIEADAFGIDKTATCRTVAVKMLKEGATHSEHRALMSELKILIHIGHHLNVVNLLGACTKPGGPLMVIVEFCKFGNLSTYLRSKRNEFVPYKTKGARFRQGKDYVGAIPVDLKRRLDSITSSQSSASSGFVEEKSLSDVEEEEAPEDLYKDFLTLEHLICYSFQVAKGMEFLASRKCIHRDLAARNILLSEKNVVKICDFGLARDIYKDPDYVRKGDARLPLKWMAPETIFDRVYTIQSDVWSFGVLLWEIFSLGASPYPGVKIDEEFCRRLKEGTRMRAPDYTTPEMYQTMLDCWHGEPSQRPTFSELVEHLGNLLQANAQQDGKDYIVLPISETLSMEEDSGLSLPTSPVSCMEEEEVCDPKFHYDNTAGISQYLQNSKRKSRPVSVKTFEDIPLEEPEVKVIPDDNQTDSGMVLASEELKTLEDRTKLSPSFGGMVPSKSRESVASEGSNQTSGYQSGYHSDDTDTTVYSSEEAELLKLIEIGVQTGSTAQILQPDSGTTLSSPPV
PDGFRβ, sequence (P09619 554-1106): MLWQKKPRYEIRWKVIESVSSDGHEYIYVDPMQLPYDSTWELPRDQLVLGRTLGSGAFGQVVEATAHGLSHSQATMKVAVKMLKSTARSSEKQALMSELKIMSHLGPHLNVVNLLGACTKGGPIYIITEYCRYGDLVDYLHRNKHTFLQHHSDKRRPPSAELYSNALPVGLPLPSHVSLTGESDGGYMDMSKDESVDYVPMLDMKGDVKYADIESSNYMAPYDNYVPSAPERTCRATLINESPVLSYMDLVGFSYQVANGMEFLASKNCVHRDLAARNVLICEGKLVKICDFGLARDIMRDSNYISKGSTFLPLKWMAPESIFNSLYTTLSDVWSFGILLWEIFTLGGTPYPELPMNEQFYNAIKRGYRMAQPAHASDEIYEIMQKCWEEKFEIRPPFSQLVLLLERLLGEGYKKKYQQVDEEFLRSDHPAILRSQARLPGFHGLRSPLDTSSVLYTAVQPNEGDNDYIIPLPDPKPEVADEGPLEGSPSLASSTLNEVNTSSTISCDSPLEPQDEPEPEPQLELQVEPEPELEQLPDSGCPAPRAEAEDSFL

Consider `Nc1ncc(-c2nnn(CCCO)n2)cc1-c1cc2cc(NC(=O)Nc3cc(F)cc(C(F)(F)F)c3)ccc2s1` [Example 5, 1-(2-{2-amino-5-[2-(3-hydroxypropyl)-2H-tetrazol-5-yl]pyridin-3-yl}-1-benzothien-5-yl)-3-[3-fluoro-5-(trifluoromethyl)phenyl]urea], for which the IC50 in test [1] turned out to be 76 nM.
For `Cc1cccc(C(=O)Nc2cccc(C#Cc3cncc(-c4nnn(CCCO)n4)c3)c2)c1` [Example 10, N-[3-({5-[2-(3-hydroxypropyl)-2H-tetrazol-5-yl]pyridin-3-yl}ethynyl)phenyl]-3-methylbenzamide], the IC50 in test [2] is 7 nM.
In the case of `O=C(Nc1ccc(Cl)c(C(F)(F)F)c1)Nc1ccc2sc(-c3cncc(-c4nn[nH]n4)c3)cc2c1` [Example 1, 1-[4-chloro-3-(trifluoromethyl)phenyl]-3-{2-[5-(2H-tetrazol-5-yl)pyridin-3-yl]-1-benzothien-5-yl}urea], in test [1], the IC50 was determined as 727 nM.
Turning to `Nc1ncc(-c2nn[nH]n2)cc1-c1cc2cc(NC(=O)Nc3ccc(Cl)c(C(F)(F)F)c3)ccc2s1` [Example 2, 1-{2-[2-amino-5-(2H-tetrazol-5-yl)pyridin-3-yl]-1-benzothien-5-yl}-3-[4-chloro-3-(trifluoromethyl)phenyl]urea], the IC50 in test [1] was 140 nM.
For `Cc1ccoc1C(=O)Nc1cccc(C#Cc2cncc(-c3nnn(CCCO)n3)c2)c1` [Example 9, N-[3-({5-[2-(3-hydroxypropyl)-2H-tetrazol-5-yl]pyridin-3-yl}ethynyl)phenyl]-3-methyl-2-furamide], the IC50 in test [3] is 21 nM; in test [2], 5 nM; in test [1], > 10000 nM.
Turning to `Nc1ncc(-c2nnn(CCCO)n2)cc1C#Cc1cccc(NC(=O)Nc2ccc(Cl)c(C(F)(F)F)c2)c1` [Example 11, 1-[3-({2-amino-5-[2-(3-hydroxypropyl)-2H-tetrazol-5-yl]pyridin-3-yl}ethynyl)phenyl]-3-[4-chloro-3-(trifluoromethyl)phenyl]urea], in test [1], the IC50 stood at 158 nM.
The same measure, in the same setting: under `Nc1ncc(-c2nnn(CCO)n2)cc1-c1cc2cc(NC(=O)Nc3ccc(Cl)c(C(F)(F)F)c3)ccc2s1` [Example 8, 1-(2-{2-amino-5-[2-(2-hydroxyethyl)-2H-tetrazol-5-yl]pyridin-3-yl}-1-benzothien-5-yl)-3-[4-chloro-3-(trifluoromethyl)phenyl]urea] stands 82 nM.
For the compound `Nc1ncc(-c2nnn(CCCO)n2)cc1-c1cc2cc(NC(=O)Nc3ccc(F)c(C(F)(F)F)c3)ccc2s1` [Example 4, 1-(2-{2-amino-5-[2-(3-hydroxypropyl)-2H-tetrazol-5-yl]pyridin-3-yl}-1-benzothien-5-yl)-3-[4-fluoro-3-(trifluoromethyl)phenyl]urea], in test [1], the IC50 worked out at 99 nM.
Still for that read-out and setting: then `Nc1ncc(-c2ncccn2)cc1-c1cc2cc(NC(=O)Nc3ccc(Cl)c(C(F)(F)F)c3)ccc2s1` [Example 13, 1-[2-(2-amino-5-pyrimidin-2-ylpyridin-3-yl)-1-benzothien-5-yl]-3-[4-chloro-3-(trifluoromethyl)phenyl]urea], with 558 nM; and `Nc1ncc(-c2cnccn2)cc1-c1cc2cc(NC(=O)Nc3ccc(Cl)c(C(F)(F)F)c3)ccc2s1` [Example 14, 1-[2-(2-amino-5-pyrazin-2-ylpyridin-3-yl)-1-benzothien-5-yl]-3-[4-chloro-3-(trifluoromethyl)phenyl]urea], with 301 nM; and `Nc1ncc(-c2nnn(CCCO)n2)cc1-c1cc2cc(NC(=O)Nc3cc(C(F)(F)F)cc(C(F)(F)F)c3)ccc2s1` [Example 6, 1-(2-{2-amino-5-[2-(3-hydroxypropyl)-2H-tetrazol-5-yl]pyridin-3-yl}-1-benzothien-5-yl)-3-[3,5-bis(trifluoromethyl)phenyl]urea], with 66 nM.
Consider `Nc1ncc(-c2nnn(CCCO)n2)cc1-c1cc2cc(NC(=O)Nc3ccc(Cl)c(C(F)(F)F)c3)ccc2s1` [Example 3, 1-(2-{2-amino-5-[2-(3-hydroxypropyl)-2H-tetrazol-5-yl]pyridin-3-yl}-1-benzothien-5-yl)-3-[4-chloro-3-(trifluoromethyl)phenyl]urea], for which the IC50 in test [1] was 39 nM.
As for `O=C(Nc1ccc(C#Cc2cncc(-c3nnn(CCCO)n3)c2)cc1)Nc1cc(C(F)(F)F)ccc1F` [Example 12, 1-[2-fluoro-5-(trifluoromethyl)phenyl]-3-[4-({5-[2-(3-hydroxypropyl)-2H-tetrazol-5-yl]pyridin-3-yl}ethynyl)phenyl]urea], the IC50 in test [2] was 8 nM; in test [1] it was > 10000 nM.

The term IC50 denotes the concentration that gives 50% inhibition.

The values are drawn from US9650366B2, “Heterocycle-substituted pyridyl benzothiophenes as kinase inhibitors” (Allergan, Inc., priority 2014, dated 2017).
